Experimental data: US6723897B2, “Methods for controlling gibberellin levels” (Monsanto Technology, LLC, priority 1998, dated 2004)

Legend:
[1] = tested on: transgenic line 719 soybean; experiment: Field trial of seed coatings under soil compaction / different soils, GA-deficient soybean; type: in vivo, Glycine max; conditions: for Count (emergence) / Dwarfs (number of dwarfs not rescued) / Dwarfs (number not rescued): Line 719
[2] = Distribution of 14C label in soybean plant parts after seed treatment
Method: ^14C-radiolabelled compounds are obtained from Lew Mander (Australian National University). ^14C-GA3 is dissolved in water:ethanol, 80:20, v/v; ^14C-GA9 and ^14C-GA12 are dissolved in 100% ethanol. Seeds of Asgrow 3237 soybeans are treated separately with solutions of each of the ^14C-radiolabelled compounds (1.7-6.8 μg; 10-40 ppm; 111,000-2,000,000 dpm/seed) by placing one to four μl of the dosing solution directly on the seed coat (^14C-GA3, GA9, and GA12), or on the hilum portion of the seed (^14C-GA3). After evaporation of the carrier solvent (approx. one hour), the treated seed is planted in containers containing approximately 30 gm of Metromix-350, and transferred to a growth chamber. Plants are grown under a 12 hour light/12 hour dark regime at 92° F. (33° C.)and 75% humidity. The pattern of uptake and translocation of ^14C-radioactivity in treated seed is monitored up to 12 days past initial treatment. For most experiments, three replicate plants are harvested at one hour after treatment, one day after treatment (DAT), two DAT, three DAT, six or seven DAT, and 12 DAT. At the time of each harvest, plants are divided into leaves, epicotyl, cotyledon, hypocotyl, and roots. The level of ^14C-radioactivity in different plant parts is determined by extraction of plant tissues with aqueous methanol and scintillation counting. The extent of metabolism of the ^14C-labelled GA compounds in planta is determined by HPLC analysis of plant extracts. The details are as follows.
The general extraction procedure consisted of blending the plant parts in a high speed polytron tissue homogenizer for 1-5 minutes with 10-20 ml of ice-cold methanol:water, 80:20, v/v, followed by vacuum filtration through a Whatman glass fiber filter. The filter cake is re-extracted as necessary using the procedure described above until an insignificant amount of radioactivity is removed. Prior to combining the extracts from each sample, aliquots are weighed and analyzed by liquid scintillation counting (LSC) to determine the amount of extracted radioactivity in each extract. Aliquots of the air-dried filter cakes are combusted and analyzed by LSC in order to determine the amount of non-extracted radioactivity. The extracts are combined and, when necessary, concentrated by rotary evaporation at a bath temperature of less than 35° C. to a small volume for analysis by HPLC to determine the extent of metabolism of the ^14C-labelled GA compounds in planta.

[3] = tested on: constitutively GA-deficient transgenic dwarf soybean line 719; experiment: Field trial of seed coating application rates, GA-deficient soybean; type: in vivo, Glycine max; conditions: seed coating
Method: GA3, GA3-3-acetate, GA5, GA9, and GA12 are evaluated in further field trials. […] The objectives of these tests are: 1) to determine if seed coatings, as compared to imbibition, of GA compounds facilitate rescue of constitutively GA-deficient transgenic dwarf soybeans (transgenic lines 719−2 plus 719+17) without causing elongation of wild-type soybeans (line A4922), and 2) to determine the seed treatment rate ranges for each of the selected GA compounds that would provide rescue of constitutively GA-deficient transgenic dwarf soybeans (transgenic lines 719−2 plus 719+17) without causing elongation of wild-type soybeans (line A4922).
Seeds are treated with GA3, GA5, GA9, GA12, and GA3-3-acetate at rates of 0, 0.1, 1, 10, and 100 μg/seed. These GA compounds are applied to the seeds using a Hege 11 seed treater (Hans-Ulrich Hege GmbH & Co., Waldenburg, Germany); 100% acetone is used as the carrier solvent. The amount of liquid introduced into the seed treater is six fluid ounces/100 lbs seed rate. In addition, GA12 is tested at 50 μg/seed. The untreated control (UTC) consisted of dry, untreated seeds. Seeds of constitutively GA-deficient transgenic dwarf soybean line 719 and wild-type A4922 are sown in both light and heavy soil. The planting depth is 0.5 to 1 inch (1.27 to 2.54 cm); watering is via drip irrigation. The experiment is carried out in three repetitions, using 25 seeds/plot (one five foot (152.4 cm) long row) for line 719, and 75 seeds/plot (two eight foot (243.8 cm) rows) for line A4922. Observations included total emergence, number of dwarfs not rescued, uniformity in plant height, average plant height, visual notes, and digital photos.
In all the experiments reported in Tables 17-24, treatments are replicated three times in a randomized block design. Data are analyzed using LSD (least significant difference) 0.05 probability using the PRM 5.0 Statistical Analysis Program (SAS Institute, North Carolina).

[4] = Heavy soil - Loose, target rate 0.5 μg/seed, Table 23
[5] = Heavy soil - Loose, target rate 4.0 μg/seed, Table 23
[6] = Heavy soil - Loose, target rate 8.0 μg/seed, Table 23
[7] = Heavy soil - Loose, target rate 16.0 μg/seed, Table 23
[8] = Heavy soil - compacted, target rate 0.5 μg/seed, Table 23
[9] = Heavy soil - compacted, target rate 4.0 μg/seed, Table 23
[10] = Heavy soil - compacted, target rate 8.0 μg/seed, Table 23
[11] = Heavy soil - compacted, target rate 16.0 μg/seed, Table 23
[12] = Heavy soil - loose, target rate 0.5 μg/seed, Table 22
[13] = Heavy soil - loose, target rate 2.0 μg/seed, Table 22
[14] = Light soil - Compacted, target rate 0.5 μg/seed, Table 22
[15] = Light soil - Compacted, target rate 2.0 μg/seed, Table 22
[16] = Light soil - Loose, target rate 0.5 μg/seed, Table 24
[17] = Light soil - Loose, target rate 2.0 μg/seed, Table 24
[18] = Light soil - Loose, target rate 4.0 μg/seed, Table 24
[19] = Light soil - compacted, target rate 0.5 μg/seed, Table 24
[20] = Light soil - compacted, target rate 2.0 μg/seed, Table 24
[21] = Light soil - compacted, target rate 4.0 μg/seed, Table 24

**Q.** What does the source list for `C=C1C[C@]23C[C@@]1(O)CC[C@H]2[C@@]12C=C[C@H](O)[C@@](C)(C(=O)O1)[C@H]2[C@@H]3C(=O)O` [GA3, gibberellic acid]?
**A.** % Emergence, Heavy Soil-Loose ([1]; 0.1 μg/seed): 78%; % Emergence, Light Soil-Compact ([1]; 0.1 μg/seed): 59%; % Rescue, Heavy Soil-Loose ([1]; 0.1 μg/seed): 80%; % Rescue, Light Soil-Compact ([1]; 0.1 μg/seed): 100%; % Emergence, Heavy Soil-Loose ([1]; 2.0 μg/seed): 66%; % Emergence, Light Soil-Compact ([1]; 2.0 μg/seed): 51%; % Rescue, Heavy Soil-Loose ([1]; 2.0 μg/seed): 93%; % Rescue, Light Soil-Compact ([1]; 2.0 μg/seed): 100%; Count (emergence) [1, 4]: 27.3 cd; Dwarfs (number of dwarfs not rescued) [1, 4]: 2.0 cde; Count (emergence) [1, 5]: 14.3 f; Dwarfs (number of dwarfs not rescued) [1, 5]: 0 e; Count (emergence) [1, 6]: 35.3 abc; Dwarfs (number of dwarfs not rescued) [1, 6]: 0.7 cde; Count (emergence) [1, 7]: 30.7 bcd; Dwarfs (number of dwarfs not rescued) [1, 7]: 0 e; Count (emergence) [1, 8]: 7.7 efg; Dwarfs (number of dwarfs not rescued) [1, 8]: 0.3 cd; Dwarfs (number of dwarfs not rescued) ([1]; Heavy soil - compacted, target rate 2.0 μg/seed, Table 23): 0 days; Count (emergence) [1, 9]: 3.3 fg; Dwarfs (number of dwarfs not rescued) [1, 9]: 0 days; Count (emergence) [1, 10]: 8.7 g·days; Dwarfs (number of dwarfs not rescued) [1, 10]: 0 days; Count (emergence) [1, 11]: 12.0 b-e; Dwarfs (number of dwarfs not rescued) [1, 11]: 0 days; Count (emergence) [1, 12]: 27 cd; Dwarfs (number of dwarfs not rescued) [1, 12]: 2.0 cde; Count (emergence) [1, 13]: 25 de; Dwarfs (number of dwarfs not rescued) [1, 13]: 0.7 cde; Count (emergence) [1, 14]: 22 efg; Dwarfs (number of dwarfs not rescued) [1, 14]: 0 days; Count (emergence) [1, 15]: 19 fg; Dwarfs (number of dwarfs not rescued) [1, 15]: 0 days; Count (emergence) [1, 16]: 45.0 ab; Dwarfs (number not rescued) [1, 16]: 0 e; Count (emergence) [1, 17]: 43.7 ab; Dwarfs (number not rescued) [1, 17]: 0 e; Count (emergence) [1, 18]: 39.3 b; Dwarfs (number not rescued) [1, 18]: 0 e; Count (emergence) [1, 19]: 1.2e+16 fg; Dwarfs (number not rescued) [1, 19]: 0; Count (emergence) [1, 20]: 19.3 fg; Dwarfs (number not rescued) [1, 20]: 0; Count (emergence) [1, 21]: 26.3 c-f; Dwarfs (number not rescued) [1, 21]: 0; rank of potential for rescuing GA-deficient dwarf soybeans without decreasing emergence ([1]; based on the last two field trials): GA9>GA5>GA3-3-acetate>GA3>GA12; best to least selectivity order ([1]; emergence under soil compaction, margin of selectivity, rescue without overelongation, Table 22): GA9>GA5>GA3-3-acetate>GA3; ^14C Label Distribution (% of dose), Cotyledon ([2]; 3 DAP): 85 % of dose; ^14C Label Distribution (% of dose), Hypocotyl ([2]; 3 DAP): 1.5 % of dose; ^14C Label Distribution (% of dose), Root ([2]; 3 DAP): 0.5 % of dose; ^14C Label Distribution (% of dose), Cotyledon ([2]; 12 DAP): 72 % of dose; ^14C Label Distribution (% of dose), Epicotyl ([2]; 12 DAP): 0.2 % of dose; ^14C Label Distribution (% of dose), Hypocotyl ([2]; 12 DAP): 1.4 % of dose; ^14C Label Distribution (% of dose), Leaves ([2]; 12 DAP): 0.9 % of dose; ^14C Label Distribution (% of dose), Root ([2]; 12 DAP): 2.8 % of dose; 719 Height, cm, Heavy soil ([3]; 0.1 μg compound per seed): 5.7 cd cm; 719 Height, cm, Light soil ([3]; 0.1 μg compound per seed): 5.7 ef cm; No. 719 Emerged, Heavy soil ([3]; 0.1 μg compound per seed): 19.7 a-d; No. 719 Emerged, Light soil ([3]; 0.1 μg compound per seed): 21.3 abc; No. 719 Not Rescued, Heavy soil ([3]; 0.1 μg compound per seed): 0 f; No. 719 Not Rescued, Light soil ([3]; 0.1 μg compound per seed): 1; 719 Height, cm, Heavy soil ([3]; 1 μg compound per seed): 5.3 cde cm; 719 Height, cm, Light soil ([3]; 1 μg compound per seed): 5.7 ef cm; No. 719 Emerged, Heavy soil ([3]; 1 μg compound per seed): 17.3 b-e; No. 719 Emerged, Light soil ([3]; 1 μg compound per seed): 20.7 abc; No. 719 Not Rescued, Heavy soil ([3]; 1 μg compound per seed): 0.3 ef; No. 719 Not Rescued, Light soil ([3]; 1 μg compound per seed): 0; 719 Height, cm, Heavy soil ([3]; 10 μg compound per seed): 10.3 a cm; 719 Height, cm, Light soil ([3]; 10 μg compound per seed): 11.7 bc cm; No. 719 Emerged, Heavy soil ([3]; 10 μg compound per seed): 18.3 a-e; No. 719 Emerged, Light soil ([3]; 10 μg compound per seed): 21.0 abc; No. 719 Not Rescued, Heavy soil ([3]; 10 μg compound per seed): 0 f; No. 719 Not Rescued, Light soil ([3]; 10 μg compound per seed): 0; 719 Height, cm, Heavy soil ([3]; 100 μg compound per seed): 9.3 ab cm; 719 Height, cm, Light soil ([3]; 100 μg compound per seed): 13.7 a cm; No. 719 Emerged, Heavy soil ([3]; 100 μg compound per seed): 8.0 f; No. 719 Emerged, Light soil ([3]; 100 μg compound per seed): 16.7 cd; No. 719 Not Rescued, Heavy soil ([3]; 100 μg compound per seed): 0 f; No. 719 Not Rescued, Light soil ([3]; 100 μg compound per seed): 0
